Consider 34 compounds from patent US7285556B2, “Thienopyrimidine-based inhibitors of the src family” (Board of Regents, The University of Texas Systems, priority 2000, dated 2007).

Structures are written as SMILES. pIC50: −log10 of the molar value. Read-outs that look alike come from different tables or passages of the source. Where only a bound is given, the exact number is not on record here.

Assay [1] concerns the target T1, Recombinant human Src (Homo sapiens, UniProt P12931).
T1 construct: made in house; host or cells: baculovirus-insect cell system
Briefly: Src tyrosine kinase activity, poly E4Y and 32P-ATP. It is filed as biochemical. A digest of the protocol:
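Recombinant GST-Csk (E. coli) or baculovirus-expressed human Src assayed on poly E4Y in 0.15 M EPPS-NaOH pH 8.0, 6 mM MgCl2, 0.2 mM γ32P-ATP, 10% glycerol, 0.1% Triton X-100. Read-out is 32P incorporation into poly E4Y; for ATP variation (0–250 μM), poly E4Y held at 150 μg/ml.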

For assay [2], the target named is T2, Csk (Homo sapiens, UniProt P41240).
T2 construct: GST (glutathione-S-transferase) (N); made in house; host or cells: E. coli (pGEX vector)
T2 sequence (P41240 whole entry, species assumed): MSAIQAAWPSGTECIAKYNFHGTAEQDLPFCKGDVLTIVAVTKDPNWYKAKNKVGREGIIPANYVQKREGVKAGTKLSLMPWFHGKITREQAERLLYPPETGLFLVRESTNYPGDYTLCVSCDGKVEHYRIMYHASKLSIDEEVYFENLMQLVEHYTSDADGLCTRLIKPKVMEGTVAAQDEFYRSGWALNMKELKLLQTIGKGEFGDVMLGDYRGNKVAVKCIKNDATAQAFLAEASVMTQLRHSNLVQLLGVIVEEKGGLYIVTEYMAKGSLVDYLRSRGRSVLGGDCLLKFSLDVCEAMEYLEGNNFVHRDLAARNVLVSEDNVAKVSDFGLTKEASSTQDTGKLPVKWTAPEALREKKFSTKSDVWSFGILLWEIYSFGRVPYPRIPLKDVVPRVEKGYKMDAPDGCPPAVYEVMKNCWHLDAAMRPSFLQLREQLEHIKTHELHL
Briefly: Csk tyrosine kinase activity, poly E4Y and 32P-ATP. It counts as biochemical. On the procedure:
Recombinant human Src was expressed using the baculovirus-insect cell system and purified as published (Budde et al., 1993 and 2000). Recombinant Csk and the FGF receptor (FGFr) were expressed as glutathione-S-transferase fusion proteins using the pGEX expression vector and E. coli, and purified as described (Sun & Budde, 1995).
The tyrosine kinase activity of Src, Csk and FGFr was determined using poly E4Y and ^32P-ATP. Briefly, enzymes were assayed in a reaction mixture consisting of 0.15 M EPPS-NaOH (pH 8.0) with 6 mM MgCl2, 0.2 mM γ^32P-ATP (0.2-0.4 mCi/μmol), 10% glycerol, 0.1% Triton X-100, and poly E4Y. Poly E4Y is a synthetic peptide whose phosphorylation is measured in this assay by the addition of the radioactively labeled phosphate from the ATP (Budde et al., 1995). […] When ATP was varied (0, 50, 100 and 250 μM), poly E4Y was kept constant at 150 μg/ml.

The mark [3] stands for this setting: Table 2, read-out: Src IC50 (especially good inhibitors of Src).
Setting [4] is: read-out: IC50 (preferred compounds for treatment of Src family-related disease).
The mark [5] stands for this setting: screening assay, 50 μg/ml poly E4Y, 0.2 mM 32P-ATP.
The mark [6] stands for this setting: screening assay, 50 μg/ml poly E4Y, 0.2 mM 32P-ATP, read-out: Src IC50.

T1 sequence (P12931 whole entry): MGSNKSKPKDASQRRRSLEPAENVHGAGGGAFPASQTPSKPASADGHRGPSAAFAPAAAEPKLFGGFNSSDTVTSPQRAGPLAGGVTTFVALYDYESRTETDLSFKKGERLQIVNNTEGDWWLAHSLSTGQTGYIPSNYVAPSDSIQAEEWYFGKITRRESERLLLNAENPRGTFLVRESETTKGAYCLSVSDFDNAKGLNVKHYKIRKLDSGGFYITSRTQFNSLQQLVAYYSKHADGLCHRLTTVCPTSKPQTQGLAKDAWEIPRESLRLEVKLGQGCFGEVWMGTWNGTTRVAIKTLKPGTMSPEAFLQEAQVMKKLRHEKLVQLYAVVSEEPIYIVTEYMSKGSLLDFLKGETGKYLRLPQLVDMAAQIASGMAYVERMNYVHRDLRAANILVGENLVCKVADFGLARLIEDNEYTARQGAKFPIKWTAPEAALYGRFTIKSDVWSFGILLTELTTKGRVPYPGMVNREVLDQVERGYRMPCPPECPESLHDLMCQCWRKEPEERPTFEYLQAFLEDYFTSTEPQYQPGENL

The pIC50 is the IC50 on a negative log10 scale, so that one unit is a factor of ten. For `Ic1cc2ncnc(NN=Cc3cccnc3)c2s1` [Compound 394, 3-Pyridinecarboxaldehyde(6-iodothieno[3,2-d]pyrimidin-4-yl)hydrazone], the pIC50 in assay [1] (setting [3]) was not below 5.70; in assay [1] (setting [4]), more than 5.70; in assay [2] (setting [5]), less than 3.88. Turning to `CCOc1ccc(C=NNc2ncnc3c(C)csc23)cc1` [Compound 48, 4-Ethoxybenzaldehyde(7-methylthieno[3,2-d]pyrimidin-4-yl)hydrazone], the pIC50 in assay [1] (setting [3]) was not below 5.70; in assay [1] (setting [4]), more than 5.70; in assay [2] (setting [5]), less than 3.80.

For the compound `COc1ccc(-c2cc3ncnc(NN=Cc4ccc(OC)c(O)c4)c3s2)cc1` [Compound 408, 3-Hydroxy-4-methoxybenzaldehyde(6-(4-methoxyphenyl)thieno[3,2-d]pyrimidin-4-yl)hydrazone], the negative logarithm of the IC50 (pIC50) in assay [1] (setting [3]) was not below 5.70; in assay [1] (setting [4]) it was more than 5.70; in assay [2] (setting [5]), less than 3.91. The like results for `O=C(O)c1ccc(C=NNc2ncnc3cc(-c4ccc(Cl)cc4)sc23)cc1` [Compound 309, 4-Carboxybenzaldehyde(6-(4-chlorophenyl)thieno[3,2-d]pyrimidin-4-yl)hydrazone] were, in that order, not below 5.70, more than 5.70 and less than 3.91.

With `COc1cccc(-c2sc3c(NN=Cc4cccnc4)ncnc3c2C)c1` [Compound 426, 3-Pyridinecarboxaldehyde(6-(3-methoxyphenyl)-7-methylthieno[3,2-d]pyrimidin-4-yl)hydrazone], the negative logarithm of the IC50 (pIC50) in assay [1] (setting [3]) is not below 5.70; in assay [1] (setting [4]), more than 5.70; in assay [2] (setting [5]), less than 3.88. The like results for `Cc1csc2c(NN=Cc3ccc(C#N)cc3)ncnc12` [Compound 121, 4-Cyanobenzaldehyde(7-methylthieno[3,2-d]pyrimidin-4-yl)hydrazone] were, in that order, not below 5.70, more than 5.70 and less than 3.77. For the compound `Cc1c(I)sc2c(NN=Cc3cccnc3)ncnc12` [Compound 372, 3-Pyridinecarboxaldehyde(6-iodo-7-methylthieno[3,2-d]pyrimidin-4-yl)hydrazone], the results for the pIC50 in assay [1] (setting [3]), in assay [1] (setting [4]) and in assay [2] (setting [5]) were not below 5.70, more than 5.70 and less than 3.90, respectively.

For the compound `Cc1c(-c2ccccc2Cl)sc2c(NN=Cc3cccnc3)ncnc12` [Compound 389, 3-Pyridinecarboxaldehyde(6-(2-chlorophenyl)7-methylthieno[3,2-d]pyrimidin-4-yl)hydrazone], the negative-log IC50 (pIC50) in assay [1] (setting [3]) is not below 5.70; in assay [1] (setting [4]), more than 5.70; in assay [2] (setting [5]), less than 3.88. The like results for `Cc1csc2c(NN=Cc3cccc(C#N)c3)ncnc12` [Compound 122, 3-Cyanobenzaldehyde(7-methylthieno[3,2-d]pyrimidin-4-yl)hydrazone] were, in that order, not below 5.70, more than 5.70 and less than 3.77. With `Cc1csc2c(NN=Cc3ccc([N+](=O)[O-])cc3)ncnc12` [Compound 24], the pIC50 in assay [1] (setting [6]) and in assay [2] (setting [5]) was less than 3.80 in each case. `Fc1ccc(-c2cc3ncnc(NN=Cc4cccnc4)c3s2)cc1` [Compound 278, 3-Pyridinecarboxaldehyde(6-(4-fluorophenyl)thieno[3,2-d]pyrimidin-4-yl)hydrazone]: the pIC50 in assay [1] (setting [3]) was not below 5.70; in assay [1] (setting [4]) it was more than 5.70; in assay [2] (setting [5]) it was less than 3.84. The corresponding values for `Cc1csc2c(NN=Cc3ccsc3)ncnc12` [Compound 33, 3-Thiophenecarboxaldehyde(7-methylthieno[3,2-d]pyrimidin-4-yl)hydrazone] are not below 5.70, more than 5.70 and less than 3.74. Regarding `Cc1csc2c(NN=Cc3ccccc3O)ncnc12` [Compound 44], the negative logarithm of the IC50 (pIC50) in assay [1] (setting [6]) and in assay [2] (setting [5]) was less than 3.75 each time. Compound `Cc1csc2c(NN=Cc3ccc(F)cc3)ncnc12` [Compound 6, 4-Fluorobenzaldehyde(7-methylthieno[3,2-d]pyrimidin-4-yl)hydrazone] gave a pIC50 in assay [2] (setting [5]) of less than 3.76. On the same count and under the same terms, the value for `Cc1csc2c(NN=Cc3ncc[nH]3)ncnc12` [Compound 34, 1H-Imidazole-2-carboxaldehyde(7-methylthieno[3,2-d]pyrimidin-4-yl)hydrazone] was less than 3.71; that for `Cc1csc2c(NN=Cc3ccccc3Cl)ncnc12` [Compound 45, 2-Chlorobenzaldehyde(7-methylthieno[3,2-d]pyrimidin-4-yl)hydrazone] was less than 3.78.

`COc1cc(C(O)c2sc3c(NN=Cc4ccc(C(=O)O)cc4)ncnc3c2C)cc(OC)c1OC` (stereo not shown) [Compound 480, 4-Carboxybenzaldehyde(6-(1-hydroxy-1-[3,4,5-trimethoxyphenyl])methyl-7-methylthieno[3,2-d]pyrimidin-4-yl)hydrazone] showed a pIC50 in assay [2] (poly E4Y and 32P-ATP) of less than 4.01. On the same count and under the same terms, the value for `COc1cc(C(O)c2sc3c(NN=Cc4cccs4)ncnc3c2C)cc(OC)c1OC` (stereo not shown) [Compound 481, 2-Thiophenecarboxaldehyde(6-(1-hydroxy-1-[3,4,5-trimethoxyphenyl])methyl-7-methylthieno[3,2-d]pyrimidin-4-yl)hydrazone] was less than 3.97.

`COc1ccc(C=NNc2ncnc3c(C)c(/C=C/c4ccccc4)sc23)cc1O` [Compound 450, 3-Hydroxy-4-methoxybenzaldehyde(7-methyl-6-(trans-2-phenylvinyl)-thieno[3,2-d]pyrimidin-4-yl)hydrazone] showed a pIC50 in assay [2] (setting [5]) of less than 3.92. In assay [2] (setting [5]), `CC(=O)Nc1ccc(C=NNc2ncnc3c(C)csc23)cc1` [Compound 20, 4-Acetamidobenzaldehyde(7-methylthieno[3,2-d]pyrimidin-4-yl)hydrazone] gave a negative logarithm of the IC50 (pIC50) of less than 3.81.

The compound `Cc1csc2c(NN=Cc3cccc(C(=O)O)c3)ncnc12` [Compound 249, 3-Carboxybenzaldehyde(7-methylthieno[3,2-d]pyrimidin-4-yl)hydrazone] had a pIC50 in assay [2] (setting [5]) of less than 3.80. In assay [2] (poly E4Y and 32P-ATP), `COc1cc(C(O)c2sc3c(NN=Cc4cccnc4)ncnc3c2C)cc(OC)c1OC` (stereo not shown) [Compound 479, 3-Pyridinecarboxaldehyde(6-(1-hydroxy-1-[3,4,5-trimethoxyphenyl])methyl-7-methylthieno[3,2-d]pyrimidin-4-yl)hydrazone] had a pIC50 of less than 3.97. On to `CCCOc1ccc(C=NNc2ncnc3c(C)csc23)cc1` [Compound 134, 4-Propoxybenzaldehyde(7-methylthieno[3,2-d]pyrimidin-4-yl)hydrazone], for which, in assay [2] (setting [5]), the pIC50 was less than 3.81. In the case of `CCCC=NNc1ncnc2c(C)csc12` [Compound 174, Butanal(7-methylthieno[3,2-d]pyrimidin-4-yl)hydrazone], the pIC50 in assay [2] (setting [5]) was less than 3.67. For the compound `CCCCC=NNc1ncnc2c(C)csc12` [Compound 175, Pentanal(7-methylthieno[3,2-d]pyrimidin-4-yl)hydrazone], in assay [2] (setting [5]), the pIC50 was less than 3.70. The compound `Cc1csc2c(NN=CC3CCCCC3)ncnc12` [Compound 25, Cyclohexanecarboxaldehyde(7-methylthieno[3,2-d]pyrimidin-4-yl)hydrazone] gave a pIC50 in assay [2] (setting [5]) of less than 3.74. In the case of `Cc1csc2c(NN=Cc3nccs3)ncnc12` [Compound 40, 2-Thiazolecarboxaldehyde(7-methylthieno[3,2-d]pyrimidin-4-yl)hydrazone], the negative-log IC50 (pIC50) in assay [2] (setting [5]) is less than 3.74. The same measure, in the same setting: the same measure for `Cc1csc2c(NN=Cc3ccoc3)ncnc12` [Compound 38, 3-Furancarboxaldehyde(7-methylthieno[3,2-d]pyrimidin-4-yl)hydrazone]: less than 3.71; for `COc1ccc(-c2sc3c(NN=Cc4cccs4)ncnc3c2C)cc1` [Compound 424, 2-Thiophenecarboxaldehyde(6-(4-methoxyphenyl)-7-methylthieno[3,2-d]pyrimidin-4-yl)hydrazone]: less than 3.88; for `CCC=NNc1ncnc2c(C)csc12` [Compound 173, Propanal(7-methylthieno[3,2-d]pyrimidin-4-yl)hydrazone]: less than 3.64.

Regarding `COc1ccc(C=NNc2ncnc3c(C)c(C(O)c4cc(OC)c(OC)c(OC)c4)sc23)cc1O` (stereo not shown) [Compound 482, 3-Hydroxy-4-methoxybenzaldehyde(6-(1-hydroxy-1-[3,4,5-trimethoxyphenyl])methyl-7-methylthieno[3,2-d]pyrimidin-4-yl)hydrazone], in assay [2] (poly E4Y and 32P-ATP), the pIC50 was less than 4.01.

In the case of `Cc1csc2c(NN=Cc3ccc(C(=O)O)cc3)ncnc12` [Compound 28, 4-Carboxybenzaldehyde(7-methylthieno[3,2-d]pyrimidin-4-yl)hydrazone], the pIC50 in assay [2] (setting [5]) is less than 3.80.

For the compound `Cc1csc2c(NN=CC3CC=CCC3)ncnc12` (stereo not shown) [Compound 181, 3-Cyclohexene-1-carboxaldehyde(7-methylthieno[3,2-a]pyrimidin-4-yl)hydrazone], in assay [2] (setting [5]), the negative logarithm of the IC50 (pIC50) was less than 3.74. Same read-out and setting: the value for `Cc1sc2c(NN=Cc3ccc(F)cc3)ncnc2c1C` [Compound 93, 4-Fluorobenzaldehyde(6,7-dimethylthieno[3,2-d]pyrimidin-4-yl)hydrazone] was less than 3.78.
